Test results published in PubChem BioAssay (NCI).
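The compound was tested at five concentrations on cells cultured in 96-well plates, with a 48-hour exposure period. The concentration for full growth arrest is given as TGI.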

Legend:
Test in all cases: DTP human tumour cell line panel, 48 h
PC-3 prostate = test system: PC-3 prostate
OVCAR-4 ovarian = test system: OVCAR-4 ovarian
NCI-H23 lung = test system: NCI-H23 lung
A498 renal = test system: A498 renal
UO-31 renal = test system: UO-31 renal
ACHN renal = test system: ACHN renal
OVCAR-5 ovarian = test system: OVCAR-5 ovarian
KM12 colon = test system: KM12 colon
M14 melanoma = test system: M14 melanoma
HOP-62 NSCLC = test system: HOP-62 NSCLC

| Compound | TGI (PC-3 prostate) | TGI (OVCAR-4 ovarian) | TGI (NCI-H23 lung) | TGI (A498 renal) | TGI (UO-31 renal) | TGI (ACHN renal) | TGI (OVCAR-5 ovarian) | TGI (KM12 colon) | TGI (M14 melanoma) | TGI (HOP-62 NSCLC) |
| --- | --- | --- | --- | --- | --- | --- | --- | --- | --- | --- |
| CC12CC(=O)C3C(C(=O)C1)C32C (stereo not given) | > 100 µM | > 100 µM | > 100 µM | > 100 µM | > 100 µM | > 100 µM | > 100 µM | > 100 µM | > 100 µM | > 100 µM |
| CCCCC1c2c([nH]c3ccccc23)C2C(=O)N(c3ccc(OC)cc3)C(=O)C2C1CCC (stereo not given) | 7.46 µM | > 10 µM | > 10 µM | 6.71 µM | > 10 µM | > 10 µM | > 10 µM | 5.65 µM | 8.53 µM | > 10 µM |
| CO[C@]12CC(=O)C3(C(C[C@H]4CC5CC=C6C[C@@H](OC(C)=O)CC[C@]6(OC(C)=O)C5C[C@@]43C)C1)C1C[C@H]3[C@@H]4CC=C5C[C@@H](OC(C)=O)CC[C@]5(OC(C)=O)[C@H]4CC[C@]3(C)C12 (stereo not given in full) | > 100 µM | 24.4 µM | 39 µM | 66.1 µM | 52.6 µM | > 100 µM | 43.5 µM | 54.3 µM | 47.2 µM | 37.9 µM |
